# Data published in patent publication US7098219B2, “Inhibitors of cellular efflux pumps of microbes” (Wockhart Limited, priority 2000, dated 2006).
# Test system: Staphylococcus aureus 1199 B NorA+
# Format: cell-based
# Settings: combination with ciprofloxacin, broth microdilution checkerboard, 35° C. 20 hours; FIC index ≦0.5 synergistic, 0.5–2.0 additive, >2.0 antagonistic
# Description: Testing method for inhibition of the efflux pump of Staphylococcus aureus 1199B NorA^+
# […]. Victor Lorian, Md., Fourth edition 1996, pp 333–338).
# In short, the assay involves broth microdilution method performed as recommended by the National Committee for Clinical Laboratory Standards (NCCLS) 1997 (Methods for Dilution of Antimicrobial Susceptibility Tests for Bacteria that Grow Aerobically, Fourth edition; Approved Standard, NCCLS document M7-A4, vol. 17, No. 2). The test organism used for the assay is Staphylococcus aureus 1199 B NorA^+.
# […]. Stock solutions of the efflux pump inhibitors tested are prepared in dimethyl sulfoxide (DMSO) at a final concentration of 5 mg/ml. Stock solutions are further diluted in Mueller Hinton Broth as per the need of the assay. Ciprofloxacin is dissolved in water.
# The checkerboard assay is performed in microtiter plates. […] The efflux pump inhibitor is diluted in the Y-axis, each row containing an equal concentration of efflux pump inhibitor. The result of these manipulations is that each well of the microtiter plate contains a unique combination of concentrations of the two agents. Bacterial inoculum is added at 5×10^5 CFU/ml. Microtiter plates are incubated at 35° C. for 20 hours. Reading is done by visibly noting turbidity and confirmed using a microtiter plate reader (Molecular Devices). The FIC index is calculated as
# (A) is the concentration of the experimental efflux pump inhibitor in the well that is the lowest inhibitory concentration in the Y-axis. (MICA) is the MIC of Staphylococcus aureus to experimental efflux pump inhibitor alone. FICA is the fractional inhibitory concentration of an experimental efflux pump inhibitor. […] (Antimicrobial Combination In Antibiotics in Laboratory Medicine, Ed. Victor Lorian, Md., Fourth edition 1996, pp 333–338).
row,Structure (SMILES),FIC INDEX
1,"CC1CC(C)CN(c2cc3c(cc2F)c(=O)c(C(=O)O)cn3C2CC2)C1 (centres unmarked) [Example 13 (NorA), 1-Cyclopropyl-6-fluoro-1,4-dihydro-7-(3′,5′-dimethylpiperidin-1-yl)-4-oxo-quinoline-3-carboxylic acid]",0.314
2,"CC1CN(c2cc3c(cc2F)c(=O)c(C(=O)O)cn3C2CC2)CC(C)C1O (centres unmarked) [Example 14 (NorA), 1-Cyclopropyl-6-fluoro-1,4-dihydro-7-(4′-hydroxy-3′,5′-dimethylpiperidin-1-yl)-4-oxo-quinoline-3-carboxylic acid]",0.314
3,"CC1CN(c2cc3c(cc2F)c(=O)c(C(=O)O)cn3C2CC2)CC(C)N1C (centres unmarked) [Example 15 (NorA), 1-Cyclopropyl-6-fluoro-1,4-dihydro-7-(3′,4′,5′-trimethylpiperazin-1-yl)-4-oxo-quinoline-3-carboxylic acid]",0.314
4,"CCOC1CCN(c2cc3c(c(C)c2F)c(=O)c(C(=O)O)cn3C2CC2)CC1 [Example 17 (NorA), 1-Cyclopropyl-6-fluoro-1,4-dihydro-5-methyl-7-(4′-ethoxypiperidin-1-yl)-4-oxo-quinoline-3-carboxylic acid]",0.378
5,"Cc1c(F)c(N2CCNC(C)(C)C2)cc2c1c(=O)c(C(=O)O)cn2C1CC1 [Example 18 (NorA), 1-Cyclopropyl-6-fluoro-1,4-dihydro-5-methyl-7-(3′,3′-dimethylpiperazin-1-yl)-4-oxo-quinoline-3-carboxylic acid]",0.314
6,"COc1c(N2CCC(O)C(CC(C)C)C2)c(F)cc2c(=O)c(C(=O)O)cn(C3CC3)c12 (centres unmarked) [Example 20 (NorA), 1-Cyclopropyl-6-fluoro-8-methoxy-1,4-dihydro-7-(4′-hydroxy-3′-isobutylpiperidin-1-yl)-4-oxo-quinoline-3-carboxylic acid]",0.248
7,"COc1c(N2CC(C)C(O)C(C)C2)c(F)cc2c(=O)c(C(=O)O)cn(C3CC3)c12 (centres unmarked) [Example 22 (NorA), 1-Cyclopropyl-6-fluoro-8-methoxy-1,4-dihydro-7-(4′-hydroxy-3′,5′-dimethylpiperidin-1-yl)-4-oxo-quinoline-3-carboxylic acid]",0.370
8,"COc1c(N2CCNC(C)C2)c(F)cc2c(=O)c(C(=O)O)cn(C3CC3)c12 (centres unmarked) [Example 23 (NorA), 1-Cyclopropyl-6-fluoro-8-methoxy-1,4-dihydro-7-(3′-methylpiperazin-1-yl)-4-oxo-quinoline-3-carboxylic acid]",0.314
9,"COc1c(N2CC(C)C(N)C(C)C2)c(F)c(N)c2c(=O)c(C(=O)O)cn(C3CC3)c12 (stereo not drawn) [Example 24 (NorA), 5-Amino-1-cyclopropyl-6-fluoro-8-methoxy-1,4-dihydro-7-(cis-4′-amino-3′,5′-dimethylpiperidin-1-yl)-4-oxo-quinoline-3-carboxylic acid]",0.314
10,"CC1CCC(N)N1c1c(F)c(N)c2c(=O)c(C(=O)O)cn(C3CC3)c2c1F (centres unmarked) [Example 26 (NorA), 5-Amino-1-cyclopropyl-6,8-difluoro-1,4-dihydro-7-(5′-amino-2′-methyl-pyrrolidin-1-yl)-4-oxo-quinoline-3-carboxylic acid]",0.628
11,"C[C@H](N)C(=O)N[C@@H](C)C(=O)NC1CCN(c2c(F)c(N)c3c(=O)c(C(=O)O)cn(C4CC4)c3c2F)C1 (stereo partly drawn) [Example 27 (NorA), 5-Amino-1-cyclopropyl-6,8-difluoro-1,4-dihydro-7-{3′-(L-Ala-L-Alaamino)pyrrolidin-1-yl}-4-oxo-quinoline-3-carboxylic acid]",0.128
12,"CCCCN(CCCC)C1CCN(c2c(F)c(N)c3c(=O)c(C(=O)O)cn(C4CC4)c3c2F)CC1 [Example 28 (NorA), 5-Amino-1-cyclopropyl-6,8-difluoro-1,4-dihydro-7-{4′-(N-di-n-butylamino)piperidin-1-yl)-4-oxo-quinoline-3-carboxylic acid]",0.314
13,"C[C@H](NC(=O)OC(C)(C)C)C(=O)N[C@@H](C)C(=O)NC1CCN(c2c(F)c(N)c3c(=O)c(C(=O)O)cn(C4CC4)c3c2F)CC1 [Example 29 (NorA), 5-Amino-1-cyclopropyl-6,8-difluoro-1,4-dihydro-7-{4′-(-t-butoxycarbonylamino-L-Ala-L-Ala)aminopiperidin-1-yl}-4-oxo-quinoline-3-carboxylic acid]",0.320
14,"CCC(=O)OC1CCN(c2c(F)c(N)c3c(=O)c(C(=O)O)cn(C4CC4)c3c2F)CC1 [Example 30 (NorA), 5-Amino-1-cyclopropyl-6,8-difluoro-1,4-dihydro-7-(4′-propionoxypiperidin-1-yl)-4-oxo-quinoline-3-carboxylic acid]",0.314
15,"CC1(C)CN(c2c(F)c(N)c3c(=O)c(C(=O)O)cn(C4CC4)c3c2F)CCC1O (centres unmarked) [Example 31 (NorA), 5-Amino-1-cyclopropyl-6,8-difluoro-1,4-dihydro-7-(4′-hydroxy-3′,3′-dimethyl-piperidin-1-yl)-4-oxo-quinoline-3-carboxylic acid]",0.304
16,"Nc1c(F)c(N2CCC(N3CCCC3)CC2)c(F)c2c1c(=O)c(C(=O)O)cn2C1CC1 [Example 32 (NorA), 5-Amino-1-cyclopropyl-6,8-difluoro-1,4-dihydro-7-{4′-(1-pyrrolidinyl)piperidin-1-yl)-4-oxo-quinoline-3-carboxylic acid]",0.340
17,Nc1c(F)c(N2CCC(CNC3CCNCC3)CC2)c(F)c2c1c(=O)c(C(=O)O)cn2C1CC1 [Example 33 (NorA)],0.314
18,CN(c1c(F)c(N)c2c(=O)c(C(=O)O)cn(C3CC3)c2c1F)C1CC(C)(C)N(C)C(C)(C)C1 [Example 34 (NorA)],0.282
19,"CC1COCC(C)N1c1c(F)c(N)c2c(=O)c(C(=O)O)cn(C3CC3)c2c1F (centres unmarked) [Example 35 (NorA), 5-Amino-1-cyclopropyl-6,8-difluoro-1,4-dihydro-7-(3′,5′-dimethylmorpholin-1-yl)-4-oxo-quinoline-3-carboxylic acid]",0.314
20,"Nc1c(F)c(N2CCN(C3CC3)CC2)c(F)c2c1c(=O)c(C(=O)O)cn2C1CC1 [Example 36 (NorA), 5-Amino-1-cyclopropyl-6,8-difluoro-1,4-dihydro-7-(4′-cyclopropylpiperazin-1-yl)-4-oxo-quinoline-3-carboxylic acid]",0.314
21,"CC1CN(c2c(F)c(N)c3c(=O)c(C(=O)O)cn(C4CC4)c3c2F)CC(C)N1C(=O)C(C)(C)C (centres unmarked) [Example 37 (NorA), 5-Amino-1-cyclopropyl-6,8-difluoro-1,4-dihydro-7-(3′,5′-dimethyl-4-pivaloylpiperazin-1-yl)-4-oxo-quinoline-3-carboxylic acid]",0.314
22,"CCOC(=O)c1cn([C@@H](C)CCSc2ccccc2)c2c(F)c(N3CCC(O)CC3)c(F)cc2c1=O [Example 38 (NorA), Ethyl 6,8-Difluoro-7-(4-hydroxypiperidin-1-yl)-1-(1-phenylthio-3(S)-but-3-yl)-1,4-dihydro-4-oxo-quinoline-3-carboxylate]",0.100
23,"CN1CCN(c2cc3c(cc2F)c(=O)c(C(=O)O)cn3-c2ccccc2C(F)(F)F)CC1(C)C [Example 39 (NorA), 1-(2′-Trifluoromethylphenyl)-6-fluoro-1,4-dihydro- -7-(3′,3′,4′-trimethylpiperazin-1-yl)-4-oxo-quinoline-3-carboxylic acid]",0.282
